For one test, the target named is Urease (Canavalia ensiformis, UniProt P07374). As to the kind of experiment: Inhibition of jack beans urease assessed as hydrolysis of urea into ammonia preincubated for 10 mins followed by urea addition measured after 10 mins by Berthelot assay.
Test [1] concerns the target Urease (Canavalia ensiformis) (UniProt P07374). As to the kind of experiment: Inhibition of jack beans urease assessed as hydrolysis of urea into ammonia at 0.5 mM preincubated for 10 mins followed by urea addition measured after 10 mins by Berthelot assay.
A short description of test [2]: Inhibition of soybean LOX using linoleic acid as substrate preincubated for 10 mins followed by substrate addition measured after 6 mins by spectrophotometric analysis. Further details: species or system Glycine max.
For a further test, the system named is Glycine max. Description: Inhibition of soybean LOX using linoleic acid as substrate at 0.5 mM preincubated for 10 mins followed by substrate addition measured after 6 mins by spectrophotometric analysis.

pIC50: −log10 of the molar value.

Urease, sequence (P07374 whole entry): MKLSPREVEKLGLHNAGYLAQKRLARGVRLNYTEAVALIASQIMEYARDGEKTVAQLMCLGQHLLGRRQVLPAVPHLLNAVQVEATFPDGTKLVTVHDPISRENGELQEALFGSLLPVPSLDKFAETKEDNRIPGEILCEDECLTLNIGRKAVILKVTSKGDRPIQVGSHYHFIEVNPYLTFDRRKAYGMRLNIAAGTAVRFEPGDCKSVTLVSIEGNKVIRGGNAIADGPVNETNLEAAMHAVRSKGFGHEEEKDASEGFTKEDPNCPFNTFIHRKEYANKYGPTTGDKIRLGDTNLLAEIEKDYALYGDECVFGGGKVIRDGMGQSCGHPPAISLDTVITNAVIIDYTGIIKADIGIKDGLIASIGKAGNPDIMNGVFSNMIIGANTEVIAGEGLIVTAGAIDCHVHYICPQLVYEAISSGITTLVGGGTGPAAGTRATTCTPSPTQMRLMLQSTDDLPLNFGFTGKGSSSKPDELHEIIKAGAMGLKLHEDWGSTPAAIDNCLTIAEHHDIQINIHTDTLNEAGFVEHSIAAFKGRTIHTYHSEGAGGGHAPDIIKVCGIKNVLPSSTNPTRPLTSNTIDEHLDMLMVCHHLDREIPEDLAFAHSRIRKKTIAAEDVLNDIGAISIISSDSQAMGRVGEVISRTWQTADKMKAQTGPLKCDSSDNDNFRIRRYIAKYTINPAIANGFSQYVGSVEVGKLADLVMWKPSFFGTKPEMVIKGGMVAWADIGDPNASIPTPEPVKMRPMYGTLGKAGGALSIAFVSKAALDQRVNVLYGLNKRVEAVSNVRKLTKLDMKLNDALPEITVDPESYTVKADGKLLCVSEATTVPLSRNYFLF
Urease (Canavalia ensiformis), sequence (P07374 whole entry, looked up): as the sequence (P07374 whole entry) above

By pIC50 is commonly meant −log10 of the IC50, conventionally taken in molar units. The term inhibition denotes the change of the read-out against control, counted positive when it falls. Consider `Brc1ccc(-c2[nH]c3ccccc3c2-c2nc(-c3ccccc3)c(-c3ccccc3)n2-c2ccc(Br)cc2)cc1`, for which the pIC50 at Urease was 4.95; in test [2], 3.76. Moreover, the inhibition in test [1] was found to be 87.8%; in the test with Glycine max, 61.1%.

In the case of `Brc1ccc(-c2[nH]c3ccccc3c2-c2nc(-c3ccccc3)c(-c3ccccc3)n2-c2ccccc2)cc1`, the pIC50 is 5.32 on Urease and 3.71 in test [2]. Moreover, the inhibition in test [1] was 89.4%; in the test on Glycine max it was 59.3%.

The compound `Brc1ccc2[nH]c(-c3ccccc3)c(-c3nc(-c4ccccc4)c(-c4ccccc4)n3-c3ccccc3)c2c1` showed a negative-log IC50 (pIC50) in test [2] of 3.87. Moreover, the inhibition in the test with Glycine max amounted to 97.2%.

In the case of `COc1ccc(-n2c(-c3c(-c4ccc(Br)cc4)[nH]c4ccccc34)nc(-c3ccccc3)c2-c2ccccc2)cc1`, the results for the pIC50 (on Urease; in test [2]) were 4.54 and 3.69, respectively. In addition, the values for the inhibition (in test [1]; in the test with Glycine max) were 85.2% and 61.7%, respectively.

As for `Cc1ccc(-n2c(-c3c(-c4ccc(C(F)(F)F)cc4)[nH]c4ccccc34)nc(-c3ccccc3)c2-c2ccccc2)cc1`, the pIC50 at Urease is 6.92; in test [2] it was 4.08. Further, the inhibition in test [1] was 79.7%; with Glycine max, 90.3%.

For `Fc1ccc(-n2c(-c3c(-c4ccc(Br)cc4)[nH]c4ccccc34)nc(-c3ccccc3)c2-c2ccccc2)cc1`, the pIC50 at Urease is 4.92; in test [2], 3.79. The values for the inhibition (in test [1]; in the test on Glycine max) were 86.7% and 87.8%, respectively.

Consider `Fc1ccc(-n2c(-c3c(-c4ccc(Cl)cc4)[nH]c4ccccc34)nc(-c3ccccc3)c2-c2ccccc2)cc1`, for which the pIC50 at Urease was 6.36; in test [2], 4.05. Further, the inhibition in test [1] is 85.6%; in the test on Glycine max it was 84.5%.

For `Brc1ccc(-n2c(-c3c(-c4ccccc4)[nH]c4ccc(Br)cc34)nc(-c3ccccc3)c2-c2ccccc2)cc1`, the results for the pIC50 (on Urease; in test [2]) were 6.82 and 3.75, respectively. Further, the inhibition came out at 93.2% in test [1] and 78.5% in the test on Glycine max.

Take `FC(F)(F)c1ccc(-c2[nH]c3ccccc3c2-c2nc(-c3ccccc3)c(-c3ccccc3)n2-c2ccc(Cl)cc2)cc1`: the pIC50 is 5.32 on Urease and 3.67 in test [2]. Further, the inhibition in test [1] came to 70.3%; in the test with Glycine max, 62.1%.

`FC(F)(F)c1ccc(-c2[nH]c3ccccc3c2-c2nc(-c3ccccc3)c(-c3ccccc3)n2-c2ccccc2)cc1` showed a pIC50 in test [2] of 3.93. This compound showed an inhibition in the test on Glycine max of 86.2%.

The compound `O=c1cc(-c2ccccc2)oc2cc(O)c(O)c(O)c12` [BAICALEIN] had a pIC50 in test [2] of 4.65. The compound further showed an inhibition with Glycine max of 93.7%.

As to `Clc1ccc(-c2[nH]c3ccccc3c2-c2nc(-c3ccccc3)c(-c3ccccc3)n2-c2ccccc2)cc1`, the pIC50 at Urease was 6.43; in test [2] it was 3.56. The inhibition in test [1] amounted to 80.3%; in the test with Glycine max, 58.3%.

As for `Fc1ccc(-n2c(-c3c(-c4ccc(C(F)(F)F)cc4)[nH]c4ccccc34)nc(-c3ccccc3)c2-c2ccccc2)cc1`, the figures for the pIC50 (at Urease; in test [2]) were 6.80 and 3.97, respectively. Further, the inhibition turned out to be 85.2% in test [1] and 80.2% in the test on Glycine max.

For the compound `Clc1ccc(-n2c(-c3c(-c4ccccc4)[nH]c4ccc(Br)cc34)nc(-c3ccccc3)c2-c2ccccc2)cc1`, the results for the pIC50 (on Urease; in test [2]) were 5.33 and 4.00, respectively. Also, the inhibition in test [1] was found to be 87.8%; with Glycine max, 83.2%.

`Cc1ccc(-n2c(-c3c(-c4ccccc4)[nH]c4ccc(Br)cc34)nc(-c3ccccc3)c2-c2ccccc2)cc1` had a pIC50 in test [2] of 3.84. In the test with Glycine max, the inhibition was determined as 81.4%.

For `COc1ccc(-n2c(-c3c(-c4ccccc4)[nH]c4ccc(Br)cc34)nc(-c3ccccc3)c2-c2ccccc2)cc1`, the values for the pIC50 (at Urease; in test [2]) were 5.34 and 3.58, respectively. The inhibition in test [1] worked out at 88.7%; in the test with Glycine max it was 57.5%.

The values above are taken from ChEMBL document CHEMBL3621141, “Discovery of indole-based tetraarylimidazoles as potent inhibitors of urease with low antilipoxygenase activity” (Eur J Med Chem, 2015).
